# Experimental data reported in patent publication US20210002232A1, “HETEROCYCLIC COMPOUNDS AS FUNGICIDES” (PI INDUSTRIES LTD., priority 2018, published 2021).
# System: Alternaria solani
# Test: Alternaria solani (early blight of tomato/potato) mycelial radial growth on Potato Dextrose Agar
# Conditions: 168 h, read-out: control
# Protocol: Compounds were dissolved in 0.3% DMSO & then added to Potato Dextrose Agar medium just prior to dispensing it into Petri dishes. 5 ml medium with compound in the desired concentration was dispensed into 60 mm sterile petri-plates. After solidification each plate was seeded with 5 mm size mycelial disc taken form periphery of actively growing virulent culture plate. Plates were incubated in growth chambers at 25° C. temperature and 60% relative humidity for seven days and radial growth was measured.
row,Compound,inhibition of growth at 300 ppm
1,"CN(CCOc1ccccc1)C(=O)c1ccc(-c2n[nH]c(C(F)(F)F)n2)cc1 [Compound 11, N-methyl-N-(2-phenoxyethyl)-4-(5-(trifluoromethyl)-1h-1,2,4-triazol-3-yl)benzamide]",> 70%
2,"CS(=O)(=Nc1ccc(C2=NOC(C(F)(F)F)N2)cc1)c1ccc(C(F)(F)F)cc1 (stereo not shown) [Compound 26, Methyl((4-(5-(trifluoromethyl)-4,5-dihydro-1,2,4-oxadiazol-3-yl)phenyl)imino)(4-(trifluoromethyl)phenyl)-λ^6-sulfanone]",> 70%
3,"O=C(Cc1ccccc1)Nc1ccc(-c2noc(C(F)F)n2)cc1 [Compound 31, N-(4-(5-(difluoromethyl)-1,2,4-oxadiazol-3-yl)phenyl)-2-phenylacetamide]",> 70%
4,"CN(Cc1ccc(-c2n[nH]c(C(F)(F)F)n2)cc1)C(=O)C1CC1 [Compound 37, N-methyl-N-(4-(5-(trifluoromethyl)-1h-1,2,4-triazol-3-yl)benzyl)cyclopropanecarboxamide]",> 70%
5,"CN(Cc1ccc(-c2n[nH]c(C(F)(F)F)n2)cc1)C(=O)C1CCC1 [Compound 38, N-methyl-N-(4-(5-(trifluoromethyl)-1h-1,2,4-triazol-3-yl)benzyl)cyclobutanecarboxamide]",> 70%
6,"CS(=O)(=NC(=O)c1ccc(-c2cc(C(F)(F)F)on2)cc1)c1ccccn1 (stereo not shown) [Compound 62, N-(methyl(oxo)(pyridin-2-yl)-λ^6-sulfaneylidene)-4-(5-(trifluoromethyl)isoxazol-3-yl)benzamide]",> 70%

# System: Phakopsora pachyrhizi
# Test: Phakopsora pachyrhizi test in soybean, preventive spray in greenhouse
# Assay type: in vivo
# Conditions: preventive spray on soybean plants, inoculated one day after treatment, compared to the untreated check, read-out: control (efficacy from disease severity rating)
row,Compound,pest or weed control at 500 ppm
1,"CC(C)(C)C(=O)NCc1ccc(-c2n[nH]c(C(F)(F)F)n2)cc1 [Compound 3, N-(4-(5-(trifluoromethyl)-1h-1,2,4-triazol-3-yl)benzyl)pivalamide]",> 90%
2,"CC(C(=O)Nc1ccc(C2=NOC(C(F)(F)F)N2)cc1)c1ccccc1 (stereo not shown) [Compound 20, 2-phenyl-N-(4-(5-(trifluoromethyl)-4,5-dihydro-1,2,4-oxadiazol-3-yl)phenyl)propanamide]",> 90%
3,"CN(Cc1ccc(C2=NOC(C(F)(F)F)N2)cc1)C(=O)C1CC1 (stereo not shown) [Compound 21, N-methyl-N-(4-(5-(trifluoromethyl)-4,5-dihydro-1,2,4-oxadiazol-3-yl)benzyl)cyclopropanecarboxamide]",> 90%
4,"CN(Cc1ccc(C2=NOC(C(F)(F)F)N2)cc1)C(=O)C1CCC1 (stereo not shown) [Compound 22, N-methyl-N-(4-(5-(trifluoromethyl)-4,5-dihydro-1,2,4-oxadiazol-3-yl)benzyl)cyclobutanecarboxamide]",> 90%
5,"O=C(Cc1ccccc1)Nc1ccc(C2=NOC(C(F)(F)F)N2)cc1 (stereo not shown) [Compound 23, 2-phenyl-N-(4-(5-(trifluoromethyl)-4,5-dihydro-1,2,4-oxadiazol-3-yl)phenyl)acetamide]",> 90%
6,"O=C(Nc1ccc(Cl)cc1F)c1ccc(C2=NOC(C(F)(F)F)N2)cc1 (stereo not shown) [Compound 29, N-(4-chloro-2-fluorophenyl)-4-(5-(trifluoromethyl)-4,5-dihydro-1,2,4-oxadiazol-3-yl)benzamide]",> 90%
7,"Cn1nc(C(F)(F)F)nc1-c1ccc(S(=O)(=O)c2ccccc2)cc1 [Compound 34, 1-methyl-5-(4-(phenylsulfonyl)phenyl)-3-(trifluoromethyl)-1h-1,2,4-triazole]",> 90%
8,"CS(=O)(=Nc1ccc(-c2n[nH]c(C(F)(F)F)n2)cc1)c1ccc(C(F)(F)F)cc1 (stereo not shown) [Compound 40, Methyl((4-(5-(trifluoromethyl)-1h-1,2,4-triazol-3-yl)phenyl)imino)(4-(trifluoromethyl)phenyl)-λ^6-sulfanone]",> 90%
9,"COc1ccc(S(C)(=O)=Nc2ccc(-c3n[nH]c(C(F)(F)F)n3)cc2)cc1 (stereo not shown) [Compound 43, (4-methyoxyphenyl)(methyl)((4-(5-(trifluoromethyl)-1h-1,2,4-triazol-3-yl)phenyl)imino)-λ^6-sulfanone]",> 90%
10,"O=C(Nc1ccc(F)cc1F)c1ccc(-c2nc(C(F)(F)F)n[nH]2)cc1 [Compound 44, N-(2,4-difluorophenyl)-4-(3-(trifluoromethyl)-1h-1,2,4-triazol-5-yl)benzamide]",> 90%
11,"CS(=O)(=NCc1ccc(-c2n[nH]c(C(F)(F)F)n2)cc1)c1cccnc1 (stereo not shown) [Compound 47, Methyl(pyridin-3-yl)((4-(5-(trifluoromethyl)-1h-1,2,4-triazol-3-yl)benzyl)imino)-λ^6-sulfanone]",> 90%
12,"O=C(Nc1ccc(F)cc1F)c1ccc(-c2cc(C(F)(F)F)on2)cc1 [Compound 57, N-(2,4-difluorophenyl)-4-(5-(trifluoromethyl)isoxazol-3-yl)benzamide]",> 90%
13,"CN(CCOc1ccccc1)C(=O)c1ccc(-c2cc(C(F)(F)F)on2)cc1 [Compound 65, N-methyl-N-(2-phenoxyethyl)-4-(5-(trifluoromethyl)isoxazol-3-yl)benzamide]",> 90%
14,"CS(=O)(=NC(=O)c1ccc(-c2cc(C(F)(F)F)on2)cc1)c1ccccc1 (stereo not shown) [Compound 66, N-(methyl(oxo)(phenyl)-λ^6-sulfaneylidene)-4-(5-(trifluoromethyl)isoxazol-3-yl)benzamide]",> 90%
15,"CS(=O)(=NC(=O)c1ccc(-c2coc(C(F)(F)F)n2)cc1)c1ccc(F)cc1 (stereo not shown) [Compound 69, N-((4-fluorophenyl)(methyl)(oxo)-λ^6-sulfaneylidene)-4-(2-(trifluoromethyl)oxazol-4-yl)benzamide]",> 90%
16,"O=C(Nc1ccc(F)cc1F)c1ccc(-c2nc(C(F)(F)F)oc2Cl)cc1 [Compound 70, 4-(5-chloro-2-(trifluoromethyl)oxazol-4-yl)-N-(2,4-difluorophenyl)benzamide]",> 90%
17,"CN(CCOc1ccccc1)C(=O)c1ccc(-c2nc(C(F)(F)F)oc2Cl)cc1 [Compound 71, 4-(5-chloro-2-(trifluoromethyl)oxazol-4-yl)-N-methyl-N-(2-phenoxyethyl)benzamide]",> 90%
18,"CS(=O)(=NC(=O)c1ccc(-c2coc(C(F)(F)F)n2)cc1)c1ccc(Cl)cc1 (stereo not shown) [Compound 72, N-((4-chlorophenyl)(methyl)(oxo)-λ^6-sulfaneylidene)-4-(2-(trifluoromethyl)oxazol-4-yl)benzamide]",> 90%
19,"CS(=O)(=NC(=O)c1ccc(-c2nc(C(F)(F)F)oc2Cl)cc1)c1ccccc1 (stereo not shown) [Compound 74, 4-(5-chloro-2-(trifluoromethyl)oxazol-4-yl)-N-(methyl(oxo)(phenyl)-λ^6-sulfaneylidene)benzamide]",> 90%
20,"O=C(Nc1ccc(F)cc1F)c1ccc(-c2coc(C(F)(F)F)n2)cc1 [Compound 77, N-(2,4-difluorophenyl)-4-(2-(trifluoromethyl)oxazol-4-yl)benzamide]",> 90%
21,"O=C(Nc1c(F)cccc1F)c1ccc(-c2coc(C(F)(F)F)n2)cc1 [Compound 80, N-(2,6-difluorophenyl)-4-(2-(trifluoromethyl)oxazol-4-yl)benzamide]",> 90%
22,"CS(=O)(=NC(=O)c1ccc(-c2coc(C(F)(F)F)n2)cc1)c1ccccc1 (stereo not shown) [Compound 83, N-(methyl(oxo)(phenyl)-λ^6-sulfaneylidene)-4-(2-(trifluoromethyl)oxazol-4-yl)benzamide]",> 90%
